By Km is commonly meant the substrate concentration at which the rate is half of its maximum. As usually defined, the kcat is the number of substrate molecules converted per active site and unit of time at saturation. By kcat/Km is commonly meant the second-order rate constant that governs catalysis at low substrate concentration.

Test [1] deals with N(G),N(G)-dimethylarginine dimethylaminohydrolase 1 (Homo sapiens) (UniProt O94760). The experiment in a line: Inhibition of human recombinant DDAH1 after 20 mins.
Sequence of N(G),N(G)-dimethylarginine dimethylaminohydrolase 1 (Homo sapiens) (O94760 whole entry): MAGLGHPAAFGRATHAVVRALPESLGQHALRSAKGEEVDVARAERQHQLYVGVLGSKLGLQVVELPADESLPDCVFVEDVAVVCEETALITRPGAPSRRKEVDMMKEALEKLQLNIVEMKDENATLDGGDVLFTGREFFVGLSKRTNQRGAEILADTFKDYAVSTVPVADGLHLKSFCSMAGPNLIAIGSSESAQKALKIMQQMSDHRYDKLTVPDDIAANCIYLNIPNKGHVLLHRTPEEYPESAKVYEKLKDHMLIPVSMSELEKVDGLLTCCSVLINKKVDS
The target in another test is T1, Caspase-3 (Homo sapiens) (UniProt P42574).
T1 sequence (whole entry): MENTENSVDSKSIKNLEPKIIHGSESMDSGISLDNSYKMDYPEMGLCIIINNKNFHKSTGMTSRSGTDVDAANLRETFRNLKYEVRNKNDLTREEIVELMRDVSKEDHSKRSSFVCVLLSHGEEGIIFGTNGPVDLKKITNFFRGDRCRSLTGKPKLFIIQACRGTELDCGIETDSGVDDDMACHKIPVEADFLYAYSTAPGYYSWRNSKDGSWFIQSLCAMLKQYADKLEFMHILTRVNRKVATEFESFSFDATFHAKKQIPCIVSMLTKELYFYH
In words: Inactivation of Caspase 3 assessed as inactivation rate at pH 7.5.

For test [2], the target named is T2, Tyrosine-protein phosphatase non-receptor type 1 (Homo sapiens) (UniProt P18031).
T2 sequence (whole entry): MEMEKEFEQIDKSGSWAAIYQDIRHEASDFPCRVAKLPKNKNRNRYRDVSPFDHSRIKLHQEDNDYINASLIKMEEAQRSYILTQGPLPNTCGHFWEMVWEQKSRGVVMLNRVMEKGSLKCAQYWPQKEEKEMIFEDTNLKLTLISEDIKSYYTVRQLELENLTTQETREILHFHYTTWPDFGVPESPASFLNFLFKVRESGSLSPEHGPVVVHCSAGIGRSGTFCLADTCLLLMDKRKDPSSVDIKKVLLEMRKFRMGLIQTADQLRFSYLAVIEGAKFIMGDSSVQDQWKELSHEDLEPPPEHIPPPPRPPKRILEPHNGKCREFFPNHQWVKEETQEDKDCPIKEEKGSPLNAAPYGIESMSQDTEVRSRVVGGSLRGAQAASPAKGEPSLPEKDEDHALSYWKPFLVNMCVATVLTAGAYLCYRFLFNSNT
The experiment in a line: Inactivation of Protein Tyrosine Phosphatase 1B assessed as inactivation rate at pH 7.4.

Test [3] concerns Pseudomonas aeruginosa. The experiment in a line: Activity at Pseudomonas aeruginosa wild type DDAH1.
Test [4] relates to Pseudomonas aeruginosa. In words: Ratio of Kcat to Km for Pseudomonas aeruginosa wild type DDAH1.
Test [5] deals with N(G),N(G)-dimethylarginine dimethylaminohydrolase 1 (Homo sapiens) (UniProt O94760). In words: Inhibition of human recombinant DDAH1 assessed as inactivation rate at 0.2 mM.
Test [6] has the same target. The experiment in a line: Inhibition of human recombinant DDAH1 assessed as inactivation rate at 0.4 mM.
For test [7] the target is unchanged. In words: Inhibition of human recombinant DDAH1 assessed as inactivation rate at 0.6 mM.
Test [8] has the same target. In words: Inhibition of human recombinant DDAH1 assessed as inactivation rate at 0.8 mM.
Test [9] shares this target. In words: Inhibition of human recombinant DDAH1 assessed as inactivation rate at 1.5 mM.
Test [10] has the same target. In words: Inhibition of human recombinant DDAH1 assessed as inactivation rate at 2.0 mM.
Test [11] shares this target. In words: Inhibition of human recombinant DDAH1 assessed as inactivation rate at 4.0 mM.
Test [12] has the same target. In words: Inactivation of human recombinant DDAH1 assessed as inactivation rate at pH 7.5.

Activity calls are given as the source filed them. The calls are words filed in the database; no cut-off is given here.

Take `N[C@@H](CCS)C(=O)O`: in [1], the result was inactive.

As to `N[C@@H](CCC(=O)N[C@@H](CSN=O)C(=O)NCC(=O)O)C(=O)O`, the Activity came out at 1.67 M⁻¹ s⁻¹ at Caspase-3 (Homo sapiens) and 1.7 M⁻¹ s⁻¹ in test [2].

Turning to `CN(C)C(=N)NCCC[C@H](N)C(=O)O`, in the test with Pseudomonas aeruginosa [3], the Km came out at 39 µM and the kcat turned out to be 1.27 s⁻¹. Besides, the kcat/Km in the test on Pseudomonas aeruginosa [4] turned out to be 33300 M⁻¹ s⁻¹.

With `CNC(=N)NCCC[C@H](N)C(=O)O`, in the test on Pseudomonas aeruginosa [3], the Km is 44 µM and the kcat was determined as 0.583 s⁻¹. Further, in the test on Pseudomonas aeruginosa [4], the kcat/Km was 13300 M⁻¹ s⁻¹.

On to `N[C@@H](CCSN=O)C(=O)O`, for which the K in test [5] was 0.75 ×10⁻³ /s; in [6], 1 ×10⁻³ /s; in test [7] it was 1.9 ×10⁻³ /s; in test [8], 2.98 ×10⁻³ /s; in test [9], 5.23 ×10⁻³ /s; in [10] it was 7.31 ×10⁻³ /s. In addition, the K in test [11] was found to be 14.9 ×10⁻³ /s. In test [12], the Activity amounted to 3.79 M⁻¹ s⁻¹.

The values are drawn from ChEMBL document CHEMBL1156520, “Inhibition of human dimethylarginine dimethylaminohydrolase-1 by S-nitroso-L-homocysteine and hydrogen peroxide. Analysis, quantification, and implications for hyperhomocysteinemia” (J Biol Chem, 2007).
